Measured values reported in patent US8937183B2, “Detection of hydrogen peroxide” (Promega Corporation, priority 2011, dated 2015).

What was measured:
[1] = test system: Jurkat cells; assay: Detection of reactive oxygen generation in cells treated with menadione or 4-aminobiphenyl, Jurkat; assay type: cell-based; details: for averaged bioluminescence: 60 minutes 37° C.
Protocol: (§1) In this example, various compounds shown to react with hydrogen peroxide were incubated with cells treated with menadione and 4-aminobiphenyl, two compounds that can generate reactive oxygen species (ROS). Menadione causes the direct production of reactive oxygen within the cell and is a very strong inducer of a ROS effect (Sun, J S et. al. Cell Mol Life Sci (1997) vol 53 pp 967-76). 4-aminobiphenyl is believed to require metabolic conversion to a quinine-like structure before being able to induce the formation of a ROS (Makena, P and Chung, K T. Environ. Mol. Mutagen. (2007), vol 48, pp 404-413).
(§2) A 40 mM solution of 4-aminobiphenyl (Sigma A2898-1g) was made by dissolving 2.5 mg in 375 μl of DMSO (Fluka) to create a 40 mM solution. 50 μl of 4 mg/ml PBI 4458 in DMSO was diluted to 1 ml with HBSS buffer (Invitrogen), and 100 μl added to wells A1 and A2 of a microtiter plate. A 10 μl sample of 40 mM 4-aminobiphenyl was mixed with 190 μl of the remaining PBI 4458 in HBSS, and 60 μl added to wells B1 and B2 and 30 μl to wells C1 and C2. A 10 μl sample of 40 mM menadione in DMSO was mixed with 190 μl of the remaining PBI 4458 in HBSS, and 60 μl added to wells D1 and D2 and 30 μl to E1 and E2. The volume in wells B1 to E2 was then adjusted to 100 μl by addition of remaining PBI 4458 in HBSS.
(§3) 50 μl of 4 mg/ml PBI 4480 in DMSO was diluted to 1 ml with HBSS buffer, and 100 μl placed in wells A3 and A4 of the microtiter plate. A 10 μl sample of 40 mM 4 aminobiphenyl was mixed with 190 μl of the remaining PBI 4480 in HBSS, and 60 μl added to wells B3 and B4 and 30 μl to wells C3 and C4. A 10 μl sample of 40 mM menadione in DMSO was mixed with 190 μl of the remaining PBI 4480 in HBSS, and 60 μl added to wells D3 and D4 and 30 μl added to wells E3 and E4. The volume in wells B3 to E4 was then adjusted to 100 μl by addition of left over PBI 4480 in HBSS.
(§4) 50 μl of 4 mg/ml PBI 3048 in DMSO was diluted to 1 ml with HBSS, and 100 μl added to wells A5 and A6 of the microtiter plate. A 10 μl sample of 40 mM 4 aminobiphenyl was mixed with 190 μl of the remaining PBI 3048 in HBSS, and 60 μl added to wells B5 and B6 and 30 μl added to wells C5 and C6. A 10 μl sample of 40 mM menadione in DMSO was mixed with 190 μl of the remaining PBI 3048 in HBSS, and 60 μl added to wells D5 and D6 and 30 μl added to wells E5 and E6. The volume in wells B5 to E6 was then adjusted to 100 μl by addition of the remaining PBI 3048 in HBSS.
(§5) Two cell culture plates were seeded with cells resuspended in HBSS. One plate contained 20,000 Jurkat cells/well in wells A1-H6. The other plate contained 20,000 HepG2 cells/well in wells A1-H6. Both plates were incubated overnight in DMEM with 10% fetal bovine serum (FBS). The media from the HepG2 cells was removed, discarded, and replaced with 50 μl of HBSS. A 50 μl sample of wells A1-H6 from the plate with the various PBI compounds was transferred to the corresponding wells in the two cell culture plates, and incubated for 60 minutes in a 37° C., 5% CO2 incubator.
(§6) 50 μl of LDR (Example 23) and 25 μl of 1 mM D-cysteine in 100 mM HEPES buffer, pH 7.5 was added to all wells of a new luminometer plate. After incubation, a 25 μl sample of wells A1-H6 containing Jurkat cells was added to wells A1-H6 of the new luminometer plate, and a 25 μl sample of wells A1-H6 containing HepG2 cells was added to wells A7-H12 of the new luminometer plate. The plate was incubated at room temperature for 15 minutes, and bioluminescence detected on a GloMax® luminometer.
(§7) The bioluminescence from the duplicate samples was averaged and compared to the values of the cells in A row (Table 4).

[2] = test system: HepG2 cells; assay: Detection of reactive oxygen generation in cells treated with menadione or 4-aminobiphenyl, HepG2; assay type: cell-based; details: for response of signal to menadione or 4-aminobiphenyl (in words): HepG2; for averaged bioluminescence: 60 minutes 37° C.
Protocol: as §1, §2, §3, §4, §5, §6, §7

| Compound | response of signal to menadione or 4-aminobiphenyl (in words) [1] | averaged bioluminescence ([1]; 300 μM 4ABP) | averaged bioluminescence ([1]; 300 μM Menadione) | averaged bioluminescence ([1]; 600 μM 4ABP) | averaged bioluminescence ([1]; 600 μM Menadione) | averaged bioluminescence ([1]; No Effector) | response of signal to menadione or 4-aminobiphenyl (in words) [2] | averaged bioluminescence ([2]; HepG2, 300 μM 4ABP) | averaged bioluminescence ([2]; HepG2, 300 μM Menadione) | averaged bioluminescence ([2]; HepG2, 600 μM 4ABP) | averaged bioluminescence ([2]; HepG2, 600 μM Menadione) | averaged bioluminescence ([2]; HepG2, No Effector) |
| --- | --- | --- | --- | --- | --- | --- | --- | --- | --- | --- | --- | --- |
| O=C(O)C1CSC(c2nc3ccc(OCc4ccc(B(O)O)cc4)cc3s2)=N1 (stereo not drawn) [PBI 3048] | do not show as clear of a response | 363,182 | 434,344 | 366,188 | 403,013 | 413,753 | do not show as clear of a response | 364,353 | 426,802 | 383,471 | 408,177 | 407,917 |
| CC1(C)OB(/C=C/COc2ccc3nc(C#N)sc3c2)OC1(C)C [PBI 4458, (E)-6-((3-(4,4,5,5-tetramethyl-1,3,2-dioxaborolan-2-yl)allyl)oxy)-benzo[d]thiazole-2-carbonitrile] | above those for the cells that were not given any effector | 213,059 | 742,717 | 195,096 | 895,269 | 174,206 | above those for the cells that were not given any effector | 163,031 | 622,230 | 169,952 | 728,404 | 117,111 |
| CC1(C)OB(c2ccc(COc3ccc4nc(C#N)sc4c3)c3ccccc23)OC1(C)C [PBI 4480, 6-((4-(4,4,5,5-tetramethyl-1,3,2-dioxaborolan-2-yl)naphthalen-1-yl)methoxy)benzo[d]thiazole-2-carbonitrile] | do not show as clear of a response | 29,810 | 29,806 | 29,277 | 27,535 | 34,646 | do not show as clear of a response | 20,574 | 20,788 | 21,023 | 20,509 | 19,627 |
